Experimental data reported in patent publication US6046231A, “Use of 4'-bromoflavone in a cancer chemopreventative composition and method” (The Board of Trustees of the University of Illinois, priority 1999, dated 2000).

Experiments:
[1] = system: MCF-7 cells (B[α]P-DNA adducts); assay: Binding of metabolically activated [3H]B[α]P to DNA of cultured MCF-7 cells; type: cell-based; details: Homo sapiens, MCF7, read-out: IC50, formation of B[α]P-DNA adducts, MCF-7
Procedure: Effect of 4'-BF on the Binding of Metabolically Activated [^3 H]B[α]P to DNA of Cultured Cells. HepG2 cells or MCF-7 cells were plated at a density of 1×10^6 cells/dish in 6 cm Petri dishes and allowed to incubate for 18 hours. Fresh media containing test samples were added to the cells 2 hours prior to the addition of 1 μM [^3 H]B[α]P (10 Ci/mmol) The test compound and tritiated carcinogen then were incubated for 6 hours. Following incubation, genomic DNA was extracted by the method described by Sharma et al., with minor modifications. Briefly, the cells were washed three times with PBS and harvested by incubation with 0.5 ml of proteinase K (100 μg/ml) in 0.2 M Tris-0.1 M EDTA (pH 8.5) for 10 min at 37° C. The cells were gently scraped from the dishes, transferred to 50 μl of 10% SDS solution, and incubated for 3 hours at 55° C. […] An aliquot of harvested DNA was used for measuring the relative absorbencies at 260 and 280 nm (A2360 nm/A2380 nm=1.7-1.9), and the DNA content was determined by absorbance at 260 nm (1 A2360 nm unit=50 μg). The remaining sample was used for the determination of radioactivity. All experiments were performed in triplicate; percentage inhibition of carcinogen-DNA binding mediated by test samples was calculated as follows: % inhibition=[1-(dpm per μg DNA test cells/dpm per μg DNA control cells)]×100.

cytochrome P4501A1 = biological target: T1, cytochrome P4501A1 (Rattus norvegicus, UniProt P00185); assay: biochemical
T1 sequence (P00185 1-524): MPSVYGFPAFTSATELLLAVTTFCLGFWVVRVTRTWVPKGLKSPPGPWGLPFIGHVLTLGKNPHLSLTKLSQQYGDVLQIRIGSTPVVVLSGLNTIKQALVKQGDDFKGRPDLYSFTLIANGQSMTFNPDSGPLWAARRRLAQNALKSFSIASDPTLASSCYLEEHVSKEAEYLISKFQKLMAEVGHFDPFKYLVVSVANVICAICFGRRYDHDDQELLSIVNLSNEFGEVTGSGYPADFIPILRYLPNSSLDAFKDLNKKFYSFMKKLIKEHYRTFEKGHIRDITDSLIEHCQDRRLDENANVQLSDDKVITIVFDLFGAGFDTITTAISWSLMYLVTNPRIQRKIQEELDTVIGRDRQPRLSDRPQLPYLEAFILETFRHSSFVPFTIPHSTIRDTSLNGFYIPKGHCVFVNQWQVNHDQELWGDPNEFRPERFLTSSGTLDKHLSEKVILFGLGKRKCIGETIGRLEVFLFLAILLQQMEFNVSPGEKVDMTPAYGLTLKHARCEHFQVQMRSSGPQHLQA
Procedure: Inhibition of DMBA-induced Cytochrome P4501A1 Activity. Female Sprague Dawley rats (43 days of age) were treated with DMBA (i.g.), and liver microsomes were isolated through differential centrifugation. Cytochrome P4501A1 activity was monitored by assessing EROD activity. Briefly, 200 μl of microsomal protein (2 mg/ml) were added to a reaction mixture containing 640 μl of 0.05 M Tris-HCl buffer (pH 7.5), 100 μl of BSA (10 mg/ml in Tris buffer), 20 μl of 0.25 M MgCl2, 40 μl of cofactor solution (0.3282 g of NADP and 1.417 g of glucose 6-phosphate in 40 ml of 1.15% KCl), 2.5 units of glucose 6-phosphate dehydrogenase, 10 μl of substrate (1 mg of ethoxyresorufin in 10 ml of methanol) and 10 μl of various concentrations of 4'-BF in DMSO (α-naphthoflavone as positive control; DMSO as negative control). After incubating at 37° C. for 4 min, the reactions were terminated by the addition of 2 ml of methanol. Samples were then centrifuged for 20 min at 2,000×g. and 200 μl of the supernatant fractions were transferred to 96-well plates and read on a spectrofluorimeter (500 nm excitation and 585 nm emission). Assays were conducted in triplicate and the percent of inhibition was calculated as: [1-(sample A-blank)/(DMSO A-blank)]×100.

With `O=c1cc(-c2ccc(Br)cc2)oc2ccccc12` [4'-Bromoflavone] the IC50 [1] was ~1700 nM and the IC50 (cytochrome P4501A1) was 860 nM.
